Laboratory results: patent publication US20240383904A1, “HETEROCYCLIC COMPOUNDS” (Hoffmann-La Roche Inc., priority 2021, published 2024)

Biological target: T1, MAGL (Homo sapiens, UniProt Q99685)
T1 sequence (Q99685 1-303): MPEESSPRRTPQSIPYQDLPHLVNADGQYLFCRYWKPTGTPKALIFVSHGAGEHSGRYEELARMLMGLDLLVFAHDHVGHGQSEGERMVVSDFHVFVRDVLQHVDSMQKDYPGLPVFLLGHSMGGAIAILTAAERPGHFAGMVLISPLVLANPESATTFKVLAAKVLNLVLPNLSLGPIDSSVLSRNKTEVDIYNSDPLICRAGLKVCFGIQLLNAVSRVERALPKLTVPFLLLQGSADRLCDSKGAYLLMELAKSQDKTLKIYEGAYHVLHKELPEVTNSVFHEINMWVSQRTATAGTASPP
Assay: 2-AG assay: MAGL inhibitory activity by hydrolysis of 2-arachidonoylglycerol to arachidonic acid, followed by mass spectrometry
Assay type: biochemical
Settings: 15 min preincubation, 30 min reaction at RT, 8 μM 2-arachidonoylglycerol
From the text: Compounds of formula (I) were profiled for MAGL inhibitory activity by determining the enzymatic activity by following the hydrolysis of the natural substrate 2-arachidonoylglycerol (2-AG) resulting in arachidonic acid, which can be followed by mass spectrometry. This assay is hereinafter abbreviated “2-AG assay”.
Compounds of formula (I) were profiled for MAGL inhibitory activity by determining the enzymatic activity by following the hydrolysis of the natural substrate 2-arachidonoylglycerol (2-AG) resulting in arachidonic acid, which can be followed by mass spectrometry. This assay is hereinafter abbreviated “2-AG assay”. The 2-AG assay was carried out in 384 well polypropylene assay plates. Compound dilutions were made in 100% DMSO in a polypropylene plate in 3-fold dilution steps to give a final concentration range in the assay from 12.5 μM to […]. Compound dilutions were added to MAGL protein in assay buffer (50 mM TRIS, 1 mM EDTA, 0.01% (v/v) Tween-20, 2.5% (v/v) DMSO). After shaking, the plate was incubated for 15 min at RT. To start the reaction, 2-arachidonoylglycerol in assay buffer was added. The final concentrations in the assay was […] for MAGL protein and 8 μM 2-arachidonoylglyerol. After shaking and 30 min incubation at RT, the reaction was quenched by the addition of two assay volumes of acetonitrile containing 4 μM of d8-arachidonic acid. The amount of arachidonic acid formed was traced by an online SPE system (Agilent Rapidfire) coupled to a triple quadrupole mass spectrometer. A C18 SPE cartridge (Agilent G9205A) was used in an acetonitrile/water liquid setup. The mass spectrometer was operated in negative electrospray mode following the mass transitions 303.1→259.1 for arachidonic acid and 311.1→267.0 for d8-arachidonic acid. The activity of the compounds was calculated based on the ratio of intensities [arachidonic acid/d 8-arachidonic acid].

| Compound | IC50 [nM] |
| --- | --- |
| N=S(=O)(c1cccc(OC(F)(F)F)c1)C1CC2(C1)CN(C(=O)N1CC3(CCC(=O)N3)C1)C2 (stereo not shown) [Example 297, 2-[6-[[3-(trifluoromethoxy)phenyl]sulfonimidoyl]-2-azaspiro[3.3]heptane-2-carbonyl]-2,5-diazaspiro[3.4]octan-6-one] | 75.9 |
| O=C1CCC2(CN(C(=O)N3CC4(CCN(S(=O)(=O)c5ccc(C(F)(F)F)cc5F)CC4)C3)C2)N1 [Example 194, 2-[7-[2-fluoro-4-(trifluoromethyl)phenyl]sulfonyl-2,7-diazaspiro[3.5]nonane-2-carbonyl]-2,5-diazaspiro[3.4]octan-6-one] | 44.6 |
| CS(=O)(=O)c1ccc(CC2CCC3(C2)CN(C(=O)N2CC4(COCC(=O)N4)C2)C3)cc1 (stereo not shown) [Example 72, 2-[6-(4-mesylbenzyl)-2-azaspiro[3.4]octane-2-carbonyl]-8-oxa-2,5-diazaspiro[3.5]nonan-6-one] | 98.2 |
| Cc1cc(C(F)(F)F)nn1CC1CC2(C1)CN(C(=O)N1CC3(CCC(=O)N3)C1)C2 [Example 326, 2-[6-[[5-methyl-3-(trifluoromethyl)pyrazol-1-yl]methyl]-2-azaspiro[3.3]heptane-2-carbonyl]-2,5-diazaspiro[3.4]octan-6-one] | 6.53 |
| O=C1CCC2(CN(C(=O)N3CC4(CC(Cn5cnc(C(F)(F)F)n5)C4)C3)C2)N1 [Example 66, 2-[6-[[3-(trifluoromethyl)-1,2,4-triazol-1-yl]methyl]-2-carbonyl]-2,5-diazaspiro[3.4]octan-6-one] | 29.9 |
| N#Cc1cc(C(F)(F)F)ncc1CC1CC2(C1)CN(C(=O)N1CC3(COC(=O)N3)C1)C2 [Example 211, 5-[[2-(6-oxo-7-oxa-2,5-diazaspiro[3.4]octane-2-carbonyl)-2-azaspiro[3.3]heptan-6-yl]methyl]-2-(trifluoromethyl)pyridine-4-carbonitrile] | 0.39 |
| O=C1CCC2(CN(C(=O)N3CC4(CC(Oc5nc(C(F)(F)F)cs5)C4)C3)C2)N1 [Example 308, 2-[6-[4-(trifluoromethyl)thiazol-2-yl]oxy-2-azaspiro[3.3]heptane-2-carbonyl]-2,5-diazaspiro[3.4]octan-6-one] | 49 |
| O=C1NC2(CO1)CN(C(=O)N1CC3(CN(Cc4ccc(C(F)(F)F)nn4)C3)C1)C2 [Example 159, 2-[6-[[6-(trifluoromethyl)pyrida-zin-3-yl]methyl]-2,6-diazaspiro[3.3]heptane-2-carbonyl]-7-oxa-2,5-diazaspiro[3.4]octan-6-one] | 109 |
| O=C1CCC2(CN(C(=O)N3CC4(CC(Cc5ncc(Cl)cc5F)C4)C3)C2)N1 [Example 175, 2-[6-[(5-chloro-3-fluoro-2-pyridyl)methyl]-2-azaspiro[3.3]heptane-2-carbonyl]-2,5-diazaspiro[3.4]octan-6-one] | 1.69 |
| CS(=O)(=O)c1ccc(CC2CC3(C2)CN(C(=O)N2CC4(CCC(=O)N4)C2)C3)cc1C(F)(F)F [Example 39, 2-[6-[4-mesy1-3-(trifluoromethyl)benzyl]-2-azaspiro[3.3]heptane-2-carbonyl]-2,5-diazaspiro[3.4]octan-6-one] | 2.38 |
| Cc1cc(C(F)F)n(CC2CC3(C2)CN(C(=O)N2CC4(CCC(=O)N4)C2)C3)n1 [Example 346, 2-[6-[[5-(difluoromethyl)-3-methyl-pyrazol-1-yl]methyl]-2-azaspiro[3.3]heptane-2-carbonyl]-2,5-diazaspiro[3.4]octan-6-one] | 29.1 |
| O=C1CCC2(CN(C(=O)N3CC4(CC(Cn5ccc(C(F)(F)F)n5)C4)C3)C2)N1 [Example 225, 2-[6-[[3-(trifluoromethyl)pyrazol-1-yl]methyl]-2-azaspiro[3.3]heptane-2-carbonyl]-2,5-diazaspiro[3.4]octan-6-one] | 17 |
| O=C1CCC2(CN(C(=O)N3CC4(CC(Cc5nc(C(F)(F)F)ns5)C4)C3)C2)N1 [Example 57, 2-[6-[[3-(trifluoromethyl)-1,2,4-thiadiazol-5-y1]methyl]-2-azaspiro[3.3]heptane-2-carbonyl]-2,5-diazaspiro[3.4]octan-6-one] | 13.4 |
| O=C1NC2(CO1)CN(C(=O)N1CCC3(CC1)CN(Cc1ccc(C(F)(F)F)cc1F)C3)C2 [Example 92, 2-[2-[2-fluoro-4-(trifluoromethyl)benzyl]-2,7-diazaspiro[3.5]nonane-7-carbonyl]-7-oxa-2,5-diazaspiro[3.4]octan-6-one] | 0.65 |
| O=C1NC2(CO1)CN(C(=O)N1CC3(CC(c4ccc(C(F)(F)F)nc4)C3)C1)C2 [Example 79, 2-[6-[6-(trifluoromethyl)-3-pyridyl]-2-azaspiro[3.3]heptane-2-carbonyl]-7-oxa-2,5-diazaspiro[3.4]octan-6-one] | 3.79 |
| O=C1COCC2(CN(C(=O)N3CC4(CC(Cc5cc(F)cc(S(=O)(=O)C(F)(F)F)c5)C4)C3)C2)N1 [Example 254, 2-[6-[[3-fluoro-5-(trifluoromethylsulfonyl)phenyl]methyl]-2-azaspiro[3.3]heptane-2-carbonyl]-8-oxa-2,5-diazaspiro[3.5]nonan-6-one] | 4.84 |
| O=C1COCC2(CN(C(=O)N3CC4(CC(Cc5nc(C(F)(F)F)cs5)C4)C3)C2)N1 [Example 369] | 23.1 |
| O=C1CCCC2(CN(C(=O)N3CC4(CN(Cc5ccc(S(=O)(=O)C(F)(F)F)cc5F)C4)C3)C2)N1 [Example 267, 2-[6-[[2-fluoro-4-(trifluoromethylsulfonyl)phenyl]methyl]-2,6-diazaspiro[3.3]heptane-2-carbonyl]-2,5-diazaspiro[3.5]nonan-6-one] | 1240 |
| O=C1NC2(CO1)CN(C(=O)N1CC3(C1)CN(c1cncc(F)c1)C3)C2 [Example 318, 2-[6-(5-fluoro-3-pyridyl)-2,6-diazaspiro[3.4]heptane-2-carbonyl]-7-oxa-2,5-diazaspiro[3.4]octan-6-one] | 146 |

The next lines start with the values.

| IC50 [nM] | Compound |
| --- | --- |
| 635 | O=C1NC2(CCO1)CN(C(=O)N1CCC3(CC1)CN(Cc1ccc(C(F)(F)F)cc1F)C3)C2 [Example 91, 2-[2-[2-fluoro-4-(trifluoromethyl)benzyl]-2,7-diazaspiro[3.5]nonane-7-carbonyl]-7-oxa-2,5-diazaspiro[3.5]nonan-6-one] |
| 78.4 | O=C1COCC2(CN(C(=O)N3CC4(CN(Cc5ccc(S(=O)(=O)C(F)(F)F)cc5)C4)C3)C2)N1 [Example 229, 2-[6-[[4-(trifluoromethylsulfonyl)phenyl]methyl]-2,6-diazaspiro[3.3]heptane-2-carbonyl]-8-oxa-2,5-diazaspiro[3.5]nonan-6-one] |
| 230 | O=C1COCC2(CN(C(=O)N3CC4(CC(Cc5cnc(C(F)(F)F)nc5)C4)C3)C2)N1 [Example 232, 2-[6-[[2-(trifluoromethyl)pyrimi-din-5-yl]methyl]-2-azaspiro[3.3]heptane-2-carbonyl]-8-oxa-2,5-diazaspiro[3.5]nonan-6-one] |
| 0.02 | N#Cc1cc(CC2CC3(C2)CN(C(=O)N2CC4(COC(=O)N4)C2)C3)ccc1C(F)(F)F [Example 18, 5-[[2-(6-keto-7-oxa-2,5-diazaspiro[3.4]octane-2-carbonyl)-2-azaspiro[3.3]heptan-6-yl]methyl]-2-(trifluoromethyl)benzoni-trile] |
| 0.18 | O=C1NC2(CO1)CN(C(=O)N1CC3(CCC(Cc4ncc(F)cc4F)CC3)C1)C2 [Example 108, 2-[7-[(3,5-difluoro-2-pyridyl)methyl]-2-azaspiro[3.5]nonane-2-carbonyl]-7-oxa-2,5-diazaspiro[3.4]octan-6-one] |
| 8.49 | O=C1COCC2(CN(C(=O)N3CC4(CC[C@@H](Cc5ccc(S(=O)(=O)C(F)(F)F)cc5)C4)C3)C2)N1 [Example 234, 2-[(6S)-6-[[4-(trifluoromethylsulfonyl)phenyl]methyl]-2-azaspiro[3.4]octane-2-carbonyl]-8-oxa-2,5-diazaspiro[3.5]nonan-6-one] |
| 87.3 | O=C1CCC2(CN(C(=O)N3CC4(CCN(Cc5ccc(S(=O)(=O)C(F)(F)F)cc5)C4)C3)C2)N1 [Example 218, 2-[7-[[4-(trifluoromethylsulfonyl)phenyl]methyl]-2,7-diazaspiro[3.4]octane-2-carbonyl]-2,5-diazaspiro[3.4]octan-6-one] |
| 6.44 | O=C1CCC2(CN(C(=O)N3CC4(CCC(S(=O)(=O)c5ccc(C(F)(F)F)cc5)CC4)C3)C2)N1 [Example 281, 2-[7-[4-(trifluoromethyl)phenyl]sulfonyl-2-azaspiro[3.5]nonane-2-carbonyl]-2,5-diazaspiro[3.4]octan-6-one] |
| 0.06 | O=C1COCC2(CN(C(=O)N3CC4(CC(Cc5ccc(C(F)(F)F)cc5F)C4)C3)C2)N1 [Example 145] |
